Measured values reported in patent US20240343740A1, “MACROCYCLIC GLUCAGON-LIKE PEPTIDE 1 RECEPTOR AGONISTS” (Eli Lilly and Company, priority 2021, published 2024).

How the values were obtained:
human GLP-1R [1] = biological target: T1, human GLP-1R (Homo sapiens, UniProt P43220); experiment: Human GLP-1 Receptor HEK293 cell cAMP assay, 581 fmol/mg GLP-1R expression density; format: cell-based; parameters: expressed in transfected cells; host or cells: HEK293 clonal cell line; conditions: HEK293 cell line with 581 fmol/mg expression density of GLP-1R; for EC50: geometric mean, read-out: EC50 nM (SEM, n), intracellular cAMP response, relative EC50; for Emax: read-out: Emax % (SEM, n), intracellular cAMP response
Summary of the method: (§1)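 HEK293 clonal lines expressing human GLP-1R, 20-point compound curves, 30 min at 37° C in DMEM with 0.1% casein, 250 μM IBMX, 0.5% DMSO. cAMP by HTRF, converted via standard curve to % of maximal human GLP-1(7-36)NH2 response; relative EC50 and Emax from four-parameter logistic fit.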

human GLP-1R [2] = biological target: T1, human GLP-1R; experiment: Human GLP-1 Receptor HEK293 cell cAMP assay, 104 fmol/mg GLP-1R expression density; format: cell-based; parameters: expressed in transfected cells; host or cells: HEK293 clonal cell line; conditions: HEK293 cell line with 104 fmol/mg expression density of GLP-1R; for EC50: geometric mean, read-out: EC50 nM (SEM, n), intracellular cAMP response, relative EC50; for Emax: read-out: Emax % (SEM, n), intracellular cAMP response
Summary of the method: as §1

[3] = percent of maximal response to GLP-1(7-36)NH2, arithmetic mean

T1 sequence (P43220 24-463): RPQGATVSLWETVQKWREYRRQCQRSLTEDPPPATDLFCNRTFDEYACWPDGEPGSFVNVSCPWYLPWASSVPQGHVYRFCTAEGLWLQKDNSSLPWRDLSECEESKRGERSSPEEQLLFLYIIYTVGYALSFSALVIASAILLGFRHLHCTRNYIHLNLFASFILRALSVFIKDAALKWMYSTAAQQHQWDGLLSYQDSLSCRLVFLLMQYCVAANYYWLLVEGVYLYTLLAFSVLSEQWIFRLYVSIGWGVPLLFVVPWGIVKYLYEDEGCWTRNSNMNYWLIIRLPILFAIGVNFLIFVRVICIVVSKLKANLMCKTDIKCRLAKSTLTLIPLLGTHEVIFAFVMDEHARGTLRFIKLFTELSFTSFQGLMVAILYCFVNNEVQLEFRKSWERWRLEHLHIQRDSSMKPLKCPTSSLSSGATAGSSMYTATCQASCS

| Compound | EC50 (human GLP-1R [1]) | Emax (human GLP-1R [1]; [3]) | EC50 (human GLP-1R [2]) | Emax (human GLP-1R [2]; [3]) | Emax % (SEM, n), intracellular cAMP response (human GLP-1R [1]; [3]) | Emax % (SEM, n), intracellular cAMP response (human GLP-1R [2]; [3]) |
| --- | --- | --- | --- | --- | --- | --- |
| COc1cc(C(=O)NS(=O)(=O)CC2CC2)cc2c1nc(Cc1cc(C)c3cc1OCCCc1cc(F)ccc1COc1cccc-3n1)n2C[C@@H]1CCO1 [Example 69, (S)—N-((Cyclopropylmethyl)sulfonyl)-2-((5^4-fluoro-1^6-methyl-3,9-dioxa-2(2,6)-pyridina-1(1,3),5(1,2)-dibenzenacyclononaphane-1^4-yl)methyl)-4-methoxy-1-(oxetan-2-ylmethyl)-1H-benzo[d]imidazole-6-carboxamide] | 59.8 nM | 71.6% | 103 nM | 26.6% | – | – |
| (S)-2-((5^4-Cyano-1^6,2^3-difluoro-3,8-dioxa-2(2,6)-pyridina-1(1,3),5(1,2)-dibenzenacyclononaphane-1^4-yl)methyl)-4-(2-methoxyethoxy)-1-(oxetan-2-ylmethyl)-1H-benzo[d]imidazole-6-carboxylic acid [Example 60] | 0.938 nM | – | 2.99 nM | – | 109% | 87.9% |
| CN(C)CCOc1cc(C(=O)O)cc2c1nc(Cc1ccc3cc1COCCc1cc(Cl)ccc1COc1cccc-3n1)n2C[C@@H]1CCO1 [Example 56, (S)-2-((5^4-Chloro-3,8-dioxa-2(2,6)-pyridina-1(1,3),5(1,2)-dibenzenacyclononaphane-1^4-yl)methyl)-4-(2-(dimethylamino)ethoxy)-1-(oxetan-2-ylmethyl)-1H-benzo[d]imidazole-6-carboxylic acid] | 55.8 nM | 85% | 131 nM | 41.7% | – | – |

The next lines start with results.

| EC50 (human GLP-1R [1]) | Emax (human GLP-1R [1]; [3]) | EC50 (human GLP-1R [2]) | Emax (human GLP-1R [2]; [3]) | Compound | Emax % (SEM, n), intracellular cAMP response (human GLP-1R [1]; [3]) | Emax % (SEM, n), intracellular cAMP response (human GLP-1R [2]; [3]) |
| --- | --- | --- | --- | --- | --- | --- |
| 300 nM | 90.1% | 613 nM | 56.9% | CNC(=O)c1ccc(-c2ccc3c(c2)CCCOc2cc(ccc2Cc2nc4ccc(C(=O)O)cc4n2C[C@@H]2CCO2)-c2cccc(n2)OC3)cc1 [Example 38, (S)-2-((5^4-(4-(Methylcarbamoyl)phenyl)-3,9-dioxa-2(2,6)-pyridina-1(1,3),5(1,2)-dibenzenacyclononaphane-1^4-yl)methyl)-1-(oxetan-2-ylmethyl)-1H-benzo[d]imidazole-6-carboxylic acid] | – | – |
| 138 nM | 68.4% | 598 nM | 52.1% | O=C(O)c1ccc2nc(Cc3ccc4cc3OCCCc3cc(-n5ccc(=O)c(F)c5)ccc3COc3cccc-4n3)n(C[C@@H]3CCO3)c2c1 [Example 71, (S)-2-((5^4-(3-Fluoro-4-oxopyridin-1(4H)-yl)-3,9-dioxa-2(2,6)-pyridina-1(1,3),5(1,2)-dibenzenacyclononaphane-1^4-yl)methyl)-1-(oxetan-2-ylmethyl)-1H-benzo[d]imidazole-6-carboxylic acid] | – | – |
| 13.4 nM | 118% | 54.5 nM | 82.5% | O=C(O)c1ccc2nc(Cc3ccc4cc3OCCCc3cc(-n5cnc(F)c5)ccc3COc3cccc-4n3)n(C[C@@H]3CCO3)c2c1 [Example 66, (S)-2-((5^4-(4-Fluoro-1H-imidazol-1-yl)-3,9-dioxa-2(2,6)-pyridina-1(1,3),5(1,2)-dibenzenacyclononaphane-1^4-yl)methyl)-1-(oxetan-2-ylmethyl)-1H-benzo[d]imidazole-6-carboxylic acid] | – | – |
| 98.4 nM | 104% | 287 nM | 74.9% | O=C(O)c1ccc2nc(Cc3ccc4cc3OCCCc3cc(-c5cnn(CC6COC6)c5)ccc3COc3cccc-4n3)n(C[C@@H]3CCO3)c2c1 [Example 28, (S)-1-(Oxetan-2-ylmethyl)-2-((5^4-(1-(oxetan-3-ylmethyl)-1H-pyrazol-4-yl)-3,9-dioxa-2(2,6)-pyridina-1(1,3),5(1,2)-dibenzenacyclononaphane-1^4-yl)methyl)-1H-benzo[d]imidazole-6-carboxylic acid] | – | – |
